In patent publication US7595330B2, “Benzimidazole thiophene compounds” (SmithKline Beecham Corporation, priority 2005, dated 2009):

Tests used:
H460 = assay: Methylene blue growth inhibition assay, H460; format: cell-based; conditions: Homo sapiens, NCI-H460; methylene blue, 72 h, H460; read-out: H460 IC50
Protocol: (§1) II. Methylene Blue Growth Inhibition Assay—Inhibition of Cell Proliferation by PLK1 Inhibitors
(§2) Generally, exponentially growing cell lines of different tumor origins, cultured in appropriate media containing 10% fetal bovine serum at 37° C. in a 5% CO2 incubator were plated at low density (less than 2000 cells/well) in 96-well plates. […]. Seventy two hours post-treatment, cell numbers were determined using 100 μl per well of methylene blue (Sigma M9140) (0.5% in 50:50 Ethanol:water). Stain was incubated at room temperature for 30 minutes before plates were rinsed and dye solubilized in 1% N-lauroyl sarcosine, sodium salt, (Sigma L5125, in PBS) (further details of a methylene blue assay are described below). Plates were read on a microplate reader, measuring the OD at 620 nm.
(§3) . The data are shown in Table 1 below and represent a compilation of several different experiments, each performed using the general parameters outlined above, although minor variations may have been employed in some instances.
(§4) In one assay, normal human foreskin fibroblasts (HFF), human colon (HCT116, RKO), lung (H460, A549) and breast (MCF7) tumor cell lines were cultured in high glucose DMEM (Life Technologies) containing 10% fetal bovine serum (FBS) at 37° C. in a humidified 5% CO2, 95% air incubator. Cells were harvested using trypsin/EDTA, counted using a haemocytometer, and plated in 100 μL of culture media per well, at the following densities, in a 96-well tissue culture plate (Falcon 3075): HFF 5,000 cells/well, HCT116 3,000 cells/well, RKO 2,500 cells/well, H460 2,500 cells/well, A549 5,000 cells/well, MCF7 4,000 cells/well. The next day, compounds were diluted in low glucose DMEM containing 100 μg/mL gentamicin, at twice the final required concentration, from 10 mM stock solutions in DMSO. 100 μL/well of these dilutions were added to the 100 μL of media currently in the assay plates. Medium containing 0.6% DMSO was added to control wells. The final concentration of DMSO in all wells was 0.3%. Cells were incubated at 37° C., 5% CO2 for 72 h. Medium was removed by aspiration. Cell biomass was estimated by staining cells with 80 μL per well methylene blue (Sigma M9140, 0.5% in 50:50 ethanol:water), and incubation at room temperature for 30-60 min. Stain was removed by aspiration and the plates rinsed by immersion in water, then air-dried. To release stain from the cells, 100 μL of solubilization solution was added (1% N-lauroyl sarcosine, Sodium salt, Sigma L5125, in PBS), and plates were shaken gently for about 30 min. Optical density at 620 nm was measured on a microplate reader. Percent inhibition of cell growth was calculated relative to vehicle treated control wells. […].

MCF7 [1] = assay: Methylene blue growth inhibition assay, MCF7; format: cell-based; conditions: Homo sapiens; methylene blue, 72 h, MCF7; read-out: MCF7 IC50
Protocol: as §1, §2, §3, §4

RKO = assay: Methylene blue growth inhibition assay, RKO; format: cell-based; conditions: Homo sapiens, methylene blue, 72 h, read-out: RKO IC50
Protocol: as §1, §2, §3, §4

[2] = High throughput solubility assay; format: physicochemical; conditions: aqueous buffer, pH 7.4, 0.05M phosphate buffer
Protocol: IV. High Throughput Solubility Assay
Two samples are prepared for each compound. One (the standard sample) contains the compound at a fixed concentration of 20 μM in an aqueous/organic mixed solvent cocktail. The other (the test sample) contains the compound at a maximum concentration of 200 μM in pH 7.4, 0.05M phosphate buffer and shaking for 24 h. The test sample is filtered by 0.45μ filter and then spun for 10 min to remove any undissolved solid. HPLC analyses are preformed on these samples. The peak areas are used for computing solubility.

HCT116 = assay: Cell-Titer-Glo inhibition of cell proliferation, HCT116; format: cell-based; conditions: Homo sapiens, HCT-116, CellTiter-Glo, 72 h
Protocol: (§5) V. Cell-Titer-Glo—Inhibition of Cell Proliferation by PLK1 Inhibitors
(§6) Exponentially growing cell lines of different tumor origins, cultured in appropriate media containing 10% fetal bovine serum at 37° C. in a 5% CO2 incubator were plated at low density (less than 2000 cells/well) in 96-well plates. Twenty four hours post-plating, cells were treated with different concentrations of test compounds ranging from 10 uM to 0.04 nM. Several wells were left untreated as a control. Seventy two hours post-treatment, cell numbers were determined using 50-100 ul per well of CellTiter-Glo (Promega #G7573). Plates were incubated at room temperature for 15 minutes and the chemiluminescent signal was read on the Victor V or Envison 2100 reader.
(§7) The Cell-Titer Glo data are shown in Table 2 below and represent a compilation of several different experiments, each performed using the general parameters outlined above, although minor variations may have been employed in some instances.

A549-L = assay: Cell-Titer-Glo inhibition of cell proliferation, A549-L; format: cell-based; conditions: CellTiter-Glo, 72 h
Protocol: as §5, §6, §7

HT29 = assay: Cell-Titer-Glo inhibition of cell proliferation, HT29; format: cell-based; conditions: Homo sapiens, HT-29, CellTiter-Glo, 72 h
Protocol: as §5, §6, §7

Hela = assay: Cell-Titer-Glo inhibition of cell proliferation, Hela; format: cell-based; conditions: Homo sapiens, CellTiter-Glo, 72 h
Protocol: as §5, §6, §7

MCF7 [3] = assay: Cell-Titer-Glo inhibition of cell proliferation, MCF7; format: cell-based; conditions: Homo sapiens, CellTiter-Glo, 72 h
Protocol: as §5, §6, §7

MV522 = assay: Cell-Titer-Glo inhibition of cell proliferation, MV522; format: cell-based; conditions: CellTiter-Glo, 72 h
Protocol: as §5, §6, §7

IC50 (H460): < 0.1 µM
IC50 (MCF7 [1]): < 0.1 µM
solubility at 24 h [2]: > 100 µM
IC50 (HCT116): < 0.5 µM
IC50 (A549-L): < 0.5 µM
IC50 (HT29): < 0.5 µM
IC50 (Hela): < 0.5 µM
IC50 (MCF7 [3]): < 0.5 µM
Structure (SMILES): C[C@@H](Oc1cc(-n2cnc3ccc(CN4CCN(C)CC4)cc32)sc1C(N)=O)c1ccccc1C(F)(F)F [Example 3, 5-{6-[(4-Methylpipiperazin-1-yl)methyl]-1H-benzimidazol-1-yl}-3-{(1R)-1-[2-(trifluoromethyl)phenyl]ethoxy}thiophene-2-carboxamide]
IC50 (RKO): < 0.1 µM
IC50 (MV522): < 0.5 µM
